Laboratory results as given in ChEMBL document CHEMBL1130737, “Inhibitors of acyl-CoA:cholesterol O-acyltransferase (ACAT) as hypocholesterolemic agents: synthesis and structure-activity relationships of novel series of sulfonamides, acylphosphonamides and acylphosphoramidates” (Bioorg Med Chem Lett, 1998).

Assays:
Rattus norvegicus [1] = experiment: In vivo percent change in plasma cholesterol level was measured at a dose of 30 mg/Kg in rat and expressed as deltaTC; not significant; assay type: functional
Rattus norvegicus [2] = experiment: In vivo percent change in plasma cholesterol level was measured at a dose of 30 mg/Kg in rat and expressed as deltaTC; p < 0.01; assay type: functional
[3] = biological target: T1, Acyl-CoA:cholesterol acyltransferase (Oryctolagus cuniculus, UniProt Q95214); experiment: In vitro inhibition of ACAT by incubation with [1-14C]oleolyl-CoA and intestinal microsomes isolated from cholesterol-fed rabbits.; design: species or system Intestine
T1 sequence (Q95214 whole entry): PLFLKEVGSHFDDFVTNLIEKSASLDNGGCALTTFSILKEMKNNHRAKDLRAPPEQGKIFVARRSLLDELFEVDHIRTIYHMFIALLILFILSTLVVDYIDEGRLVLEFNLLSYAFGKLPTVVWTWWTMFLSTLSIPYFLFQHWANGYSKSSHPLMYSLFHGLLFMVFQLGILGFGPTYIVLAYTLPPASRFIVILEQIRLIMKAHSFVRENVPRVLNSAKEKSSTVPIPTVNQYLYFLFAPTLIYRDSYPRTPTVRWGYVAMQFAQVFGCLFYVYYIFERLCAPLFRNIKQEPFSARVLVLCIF

Rattus norvegicus [4] = experiment: In vivo percent change in plasma cholesterol level was measured at a dose of 1 mg/Kg in rat and expressed as deltaTC; not significant; assay type: functional
Rattus norvegicus [5] = experiment: In vivo percent change in plasma cholesterol level was measured at a dose of 30 mg/Kg in rat and expressed as deltaTC; p < 0.05; assay type: functional
Rattus norvegicus [6] = experiment: In vivo percent change in plasma cholesterol level was measured at a dose of 30 mg/Kg in rat and expressed as deltaTC; p < 0.001; assay type: functional
Rattus norvegicus [7] = experiment: In vivo percent change in plasma cholesterol level was measured at a dose of 10 mg/Kg in rat and expressed as deltaTC; not significant; assay type: functional
Rattus norvegicus [8] = experiment: In vivo percent change in plasma cholesterol level was measured at a dose of 1 mg/Kg in rat and expressed as deltaTC; p < 0.05; assay type: functional

IC50 [3] [nM] | SMILES | DeltaTC (Rattus norvegicus [2]) [%] | also measured
 | CCCCCCCCN(CCCCCCCC)C(=O)CS(=O)(=O)Nc1c(C(C)C)cccc1C(C)C |  | DeltaTC (Rattus norvegicus [1]): -19%
12000 | CC(C)c1cc(C(C)C)c(CC(=O)NS(=O)(=O)Oc2c(C(C)C)cccc2C(C)C)c(C(C)C)c1 [AVASIMIBE] | -73 | 
> 1000 | CC(C)c1cccc(C(C)C)c1NS(=O)(=O)CC(=O)NCC1(c2ccccc2)CCCC1 |  | 
320 | CCCCCCCCCCCCNC(=O)CS(=O)(=O)Nc1c(C(C)C)cccc1C(C)C | -29 | 
7 | CC(C)c1cccc(C(C)C)c1NC(=O)CS(=O)(=O)Oc1c(C(C)C)cccc1C(C)C | -42 | 
> 50000 | CC(C)c1cccc(C(C)C)c1NS(=O)(=O)CC(=O)Sc1c(C(C)C)cccc1C(C)C |  | DeltaTC (Rattus norvegicus [1]): -16%
> 5000 | CCCCCCNC(=O)CS(=O)(=O)Nc1c(C(C)C)cccc1C(C)C |  | DeltaTC (Rattus norvegicus [5]): -16%
> 1000 | CC(C)c1cc(C(C)C)c(NS(=O)(=O)CC(=O)Oc2c(C(C)C)cccc2C(C)C)c(C(C)C)c1 | -29 | 
> 1000 | CCCCCCCCCCOC(=O)CS(=O)(=O)Nc1c(C(C)C)cccc1C(C)C |  | DeltaTC (Rattus norvegicus [5]): -16%
> 1000 | CCOC(=O)CS(=O)(=O)Nc1c(C(C)C)cccc1C(C)C |  | DeltaTC (Rattus norvegicus [1]): 2%
1800 | CC(C)c1cccc(C(C)C)c1OS(=O)(=O)CC(=O)NC(c1ccccc1)c1ccccc1 | -43 | 
1000 | CCCCCCSC(=O)CS(=O)(=O)Nc1c(C(C)C)cccc1C(C)C |  | 
> 1000 | CCCCCCCCOC(=O)CS(=O)(=O)Nc1c(C(C)C)cccc1C(C)C |  | DeltaTC (Rattus norvegicus [1]): -4%
21 | CCCCCCCCCCCCC(C)OC(=O)CS(=O)(=O)Nc1c(C(C)C)cccc1C(C)C (stereo not drawn) |  | DeltaTC (Rattus norvegicus [6]): -39%
130 | CCCCCCCCCCSC(=O)CS(=O)(=O)Nc1c(C(C)C)cccc1C(C)C |  | 
> 1000 | COc1cc(OC)c(OC(=O)CS(=O)(=O)Nc2c(C(C)C)cccc2C(C)C)c(OC)c1 |  | DeltaTC (Rattus norvegicus [1]): -6%
350 | CC(C)c1cccc(C(C)C)c1NC(=O)CS(=O)(=O)Nc1c(C(C)C)cccc1C(C)C |  | DeltaTC (Rattus norvegicus [6]): -51%
2800 | CC(C)c1cc(C(C)C)c(OC(=O)CS(=O)(=O)Nc2c(C(C)C)cccc2C(C)C)c(C(C)C)c1 |  | DeltaTC (Rattus norvegicus [1]): -19%
 | CCCCCCCCCCCCCCOC(=O)CS(=O)(=O)Nc1c(C(C)C)cccc1C(C)C | -45 | 
> 1000 | CCCCCCOC(=O)CS(=O)(=O)Nc1c(C(C)C)cccc1C(C)C |  | DeltaTC (Rattus norvegicus [1]): -5%
150 | CCCCCCCCSC(=O)CS(=O)(=O)Nc1c(C(C)C)cccc1C(C)C |  | DeltaTC (Rattus norvegicus [5]): -32%
73 | CCCCCCCCCCCCSC(=O)CS(=O)(=O)Nc1c(C(C)C)cccc1C(C)C | -71 | 
> 5000 | CCCCCCCCCCCCCCCCCCSC(=O)CS(=O)(=O)Nc1c(C(C)C)cccc1C(C)C |  | DeltaTC (Rattus norvegicus [1]): -35%
36 | CCCCCCCCCCCCCCSC(=O)CS(=O)(=O)Nc1c(C(C)C)cccc1C(C)C | -23 | 
150 | CC(C)c1cccc(C(C)C)c1NS(=O)(=O)CC(=O)N(Cc1ccccc1)C(C)C | -31 | 
7 | CC(C)c1cc(C(C)C)c(OS(=O)(=O)CC(=O)Nc2c(C(C)C)cccc2C(C)C)c(C(C)C)c1 | -60 | 
3000 | CCCCCCCCCCCCNC(=O)CS(=O)(=O)Oc1c(C(C)C)cccc1C(C)C |  | DeltaTC (Rattus norvegicus [1]): -3%
 | CCCCCCCCCCCCOC(=O)CS(=O)(=O)Nc1c(C(C)C)cccc1C(C)C | -34 | 
> 1000 | CC(C)c1cccc(C(C)C)c1NS(=O)(=O)CC(=O)Oc1c(C(C)C)cccc1C(C)C |  | 

SMILES | IC50 [3] [nM] | DeltaTC (Rattus norvegicus [2]) [%] | also measured
COP(=O)(NC(=O)Cc1c(C(C)C)cc(C(C)C)cc1C(C)C)Oc1c(C(C)C)cc(Cl)cc1C(C)C (stereo not drawn) | > 5000 |  | DeltaTC (Rattus norvegicus [4]): -12%
CC(C)c1cccc(C(C)C)c1OC(=O)[N-]S(=O)(=O)Oc1c(C(C)C)cccc1C(C)C.[Na+] | 5200 | -74 | 
COP(=O)(Cc1c(C(C)C)cc(C(C)C)cc1C(C)C)NC(=O)Cc1c(C(C)C)cccc1C(C)C (stereo not drawn) | 290 |  | 
COP(=O)(Cc1c(C(C)C)cccc1C(C)C)NC(=O)Cc1c(C(C)C)cc(C(C)C)cc1C(C)C (stereo not drawn) | 1200 |  | DeltaTC (Rattus norvegicus [7]): -2%
COP(=O)(NC(=O)Cc1c(C(C)C)cc(C(C)C)cc1C(C)C)Oc1c(C(C)C)cccc1C(C)C (stereo not drawn) | 4800 |  | 
COP(=O)(Cc1c(C(C)C)cc(C(C)C)cc1C(C)C)NC(=O)Cc1c(C(C)C)cc(C(C)C)cc1C(C)C (stereo not drawn) | 740 |  | DeltaTC (Rattus norvegicus [7]): -17%
CC(C)c1cc(C(C)C)c(CC(=O)NP(=O)(Oc2c(C(C)C)cccc2C(C)C)c2ccccc2)c(C(C)C)c1 (stereo not drawn) | 2500 |  | DeltaTC (Rattus norvegicus [8]): -25%
